Laboratory results from patent US6994841B1, “Relating to magnetic resonance imaging” (Kucharczyk and Moseley Partners, priority 1990, dated 2006).

Assays:
mice = assay: LD50 i.v. administration in mice; type: in vivo
[1] = tested on: cat brain after right middle cerebral artery (MCA) occlusion; assay: DyDTPA-BMA-enhanced T2-weighted spin-echo MRI of cerebral perfusion deficit after MCA occlusion; type: in vivo; details: for signal difference between ischemic and contralateral control tissue: mean ± S.E.M.
Experimental: Young adult cats weighing 2.0 to 4.5 kg were anaesthetized with 30 mg/kg i.v. Nembutal. Polyethylene catheters were placed in the femoral artery and vein for blood pressure monitoring and drug administration. The right middle cerebral artery (MCA) was isolated via the transorbital approach and occluded just proximal to the origin of the lateral striate arteries with bipolar electrocautery followed by complete surgical transection. The dural incision and orbit were covered with saline moistened gauze and absorbable gelatin sponge.
A General Electric CSI (2 Tesla) unit, equipped with Acustar S-150 self-shielded gradient coils (+20 gauss/cm, 15 cm bore size) was used. MRI was performed with an 8.5 cm inner-diameter low-pass birdcage proton imaging coil. Successive multislice T2-weighted coronal images were obtained for up to 12 hours following occlusion. Spin-echo T2-weighted images (TR 2800, TE 80 and 160, 3 mm slices, 1 mm gap) were obtained with a field-of-view (FOV) of 80 mm in which two scans were averaged for each one of the 128 phase-encoding steps resulting in a total acquisition time of 12 minutes.
In order to evaluate the anatomic region of perfusion deficiency following MCA occlusion, cats were injected with a non-ionic T2*-shortening contrast agent, DyDTPA-BMA. The DyDTPA-BMA complex was prepared by refluxing an aqueous suspension containing stoichiometric amounts of dysprosium oxide and DTPA-BMA. The contrast agent was infused i.v. at doses of 0.25, 0.5 or 1.0 mmol/kg beginning at phase-encoding step #32 and finishing at step #60 (approximately 3 min) of T2-weighted image acquisition. DyDTPA-BMA injections were given at different time points post MCA occlusion in individual cats. After injection, the magnetic susceptibility effect was quantified for up to 60 minutes in both ischemic and normal hemispheres by comparing region-of-interest (ROI) intensity to pre-contrast T2-weighted ROI intensities. […] A signal intensity ratio was calculated as the ROI image intensity ratio of an abnormal, ischemic region over that of the normal, contralateral side. Results were expressed as the mean percentage change ±Standard Error of the Mean (X±S.E.M.)
At the conclusion of the MR protocol, 15 ml/kg of a 2% solution of 2,3,5-triphenyl tetrazolium chloride (TTC) was infused transcardially. The brain was removed from the cranium after 10–20 minutes, immersed in a 2% TTC solution for another 10–20 minutes, and then stored overnight in 10% buffered formalin in a light shielded container. The brain was sectioned coronally (2–3 mm slices) from 24–36 hours later and immediately examined for histologic evidence of ischemic damage as evidenced by pallor of TTC-staining.

CNC(=O)CN(CCN(CCN(CC(=O)[O-])CC(=O)NC)CC(=O)[O-])CC(=O)[O-].[Dy+3] [DyDTPA-BMA] was tested, and the LD50 (mice) was 34 mmol/kg, the “Onset of signal hypertensity (relative to pre-contrast T2-weighted image): Earlier (number of cats)” value ([1]; 0.25 mmol/kg, 5 cats tested) was 1 and the “Onset of signal hypertensity (relative to pre-contrast T2-weighted image): Later (number of cats)” value ([1]; 0.25 mmol/kg, 5 cats tested) was 0. For the same compound, the “Onset of signal hypertensity (relative to pre-contrast T2-weighted image): Same Time (number of cats)” value ([1]; 0.25 mmol/kg, 5 cats tested) was 4, the “Signal intensity ratio of injured to contralateral control tissue (relative to pre-contrast T2 weighted image): Better (number of injections)” value ([1]; 0.25 mmol/kg, 5 injections) was 4 and the “Signal intensity ratio of injured to contralateral control tissue (relative to pre-contrast T2 weighted image): Same (number of injections)” value ([1]; 0.25 mmol/kg, 5 injections) was 1. For the same compound, the “Signal intensity ratio of injured to contralateral control tissue (relative to pre-contrast T2 weighted image): Worse (number of injections)” value ([1]; 0.25 mmol/kg, 5 injections) was 0, the “maximum signal intensity losses” value ([1]; 0.5 mmol/kg i.v., gray matter of normal non-occluded cerebral hemisphere, first 15 minutes after injection) was 35% and the “Onset of signal hypertensity (relative to pre-contrast T2-weighted image): Earlier (number of cats)” value ([1]; 0.50 mmol/kg, 16 cats tested) was 12. The “Onset of signal hypertensity (relative to pre-contrast T2-weighted image): Later (number of cats)” value ([1]; 0.50 mmol/kg, 16 cats tested) was 0, the “Onset of signal hypertensity (relative to pre-contrast T2-weighted image): Same Time (number of cats)” value ([1]; 0.50 mmol/kg, 16 cats tested) was 4 and the “Signal intensity ratio of injured to contralateral control tissue (relative to pre-contrast T2 weighted image): Better (number of injections)” value ([1]; 0.50 mmol/kg, 23 injections) was 17. For the same compound, the “Signal intensity ratio of injured to contralateral control tissue (relative to pre-contrast T2 weighted image): Same (number of injections)” value ([1]; 0.50 mmol/kg, 23 injections) was 6, the “Signal intensity ratio of injured to contralateral control tissue (relative to pre-contrast T2 weighted image): Worse (number of injections)” value ([1]; 0.50 mmol/kg, 23 injections) was 0 and the “Onset of signal hypertensity (relative to pre-contrast T2-weighted image): Earlier (number of cats)” value ([1]; 1.0 mmol/kg, 6 cats tested) was 4. For the same compound, the “Onset of signal hypertensity (relative to pre-contrast T2-weighted image): Later (number of cats)” value ([1]; 1.0 mmol/kg, 6 cats tested) was 0, the “Onset of signal hypertensity (relative to pre-contrast T2-weighted image): Same Time (number of cats)” value ([1]; 1.0 mmol/kg, 6 cats tested) was 2 and the “Signal intensity ratio of injured to contralateral control tissue (relative to pre-contrast T2 weighted image): Better (number of injections)” value ([1]; 1.0 mmol/kg, 16 injections) was 14. The “Signal intensity ratio of injured to contralateral control tissue (relative to pre-contrast T2 weighted image): Same (number of injections)” value ([1]; 1.0 mmol/kg, 16 injections) was 2, the “Signal intensity ratio of injured to contralateral control tissue (relative to pre-contrast T2 weighted image): Worse (number of injections)” value ([1]; 1.0 mmol/kg, 16 injections) was 0 and the “signal intensity recovery, of pre-contrast control values” ([1]; 45 minutes after administration, all cerebral tissues) was “at least 90%”. The “signal difference between ischemic and contralateral control tissue” value ([1]; basal ganglia) was 26±8%, the “time post-occlusion at which relative hyperintensity was found in occluded basal ganglia (as early as)” value ([1]; both 1 mmol/kg and 0.5 mmol/kg dosages) was 30 min and the “difference in immediate post-contrast signal intensity on increasing dosage” value ([1]; dosage increased from 0.5 to 1.0 mmol/kg) was “only a minimal difference”. The “signal difference between ischemic and contralateral control tissue” value ([1]; gray matter in the inferior parietal gyrus) was 42±14% and the “signal difference between ischemic and contralateral control tissue” value ([1]; white matter in the internal capsule) was 5±4%.
